What was measured:
Assay type in all cases: in vivo
[1] = system: wheat (Triticum aestivum); test: Test B pre-/postemergence plant response; conditions: for Wheat plant response rating: 8 g ai/ha
Procedure, shortened: (§1)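 Preemergence and postemergence (plants 2-18 cm, 1- to 4-leaf stage) applications used test chemicals in a non-phytotoxic solvent with surfactant. Plants were held in a greenhouse 13 to 15 days, then rated visually against controls on a 0-100 scale (0 no effect, 100 complete control).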

[2] = system: common (oilseed) sunflower (Helianthus annuus); test: Test B pre-/postemergence plant response; conditions: Preemergence
Procedure, shortened: as §1

[3] = system: cocklebur (Xanthium strumarium); test: Test B pre-/postemergence plant response; conditions: for Cocklebur plant response rating: 8 g ai/ha
Procedure, shortened: as §1

[4] = system: downy bromegrass (Bromus tectorum); test: Test B pre-/postemergence plant response; conditions: for Bromegrass, Downy plant response rating: 8 g ai/ha
Procedure, shortened: as §1

[5] = system: green foxtail (Setaria viridis); test: Test B pre-/postemergence plant response; conditions: for Foxtail, Green plant response rating: 8 g ai/ha
Procedure, shortened: as §1

[6] = system: catchweed bedstraw (Galium aparine); test: Test B pre-/postemergence plant response; conditions: Preemergence
Procedure, shortened: as §1

[7] = system: pigweed (Amaranthus retroflexus); test: Test B pre-/postemergence plant response; conditions: for Pigweed plant response rating: 8 g ai/ha
Procedure, shortened: as §1

[8] = system: woolly cupgrass (Eriochloa villosa); test: Test B pre-/postemergence plant response; conditions: for Cupgrass, Woolly plant response rating: 8 g ai/ha
Procedure, shortened: as §1

[9] = system: Russian thistle (Salsola iberica); test: Test B pre-/postemergence plant response; conditions: Preemergence
Procedure, shortened: as §1

soybean (Glycine max) = test: Test B pre-/postemergence plant response; conditions: for Soybean plant response rating: 8 g ai/ha
Procedure, shortened: as §1

[10] = system: large crabgrass (Digitaria sanguinalis); test: Test B pre-/postemergence plant response; conditions: for Crabgrass, Large plant response rating: 8 g ai/ha
Procedure, shortened: as §1

[11] = system: velvetleaf (Abutilon theophrasti); test: Test B pre-/postemergence plant response; conditions: for Velvetleaf plant response rating: 8 g ai/ha
Procedure, shortened: as §1

[12] = system: goosegrass (Eleusine indica); test: Test B pre-/postemergence plant response; conditions: for Goosegrass plant response rating: 8 g ai/ha
Procedure, shortened: as §1

rice (Oryza sativa) = test: Test B flooded paddy test plant response
Procedure, shortened: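 Compounds were added directly to paddy water over 2-leaf-stage plants in pots flooded 3 cm above soil, water depth maintained. Visual injury scored against controls after 13 to 15 days in greenhouse, 0 (none) to 100 (complete control); dash indicates no result.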

[13] = Postemergence, 16 g ai/ha, scale 0 to 100
[14] = Postemergence, 62 g ai/ha, scale 0 to 100, 0 no effect, 100 complete control
[15] = Preemergence, 16 g ai/ha, scale 0 to 100 (0 no effect, 100 complete control)
[16] = Preemergence, 31 g ai/ha, 0 to 100 scale, 0 no effect, 100 complete control
[17] = Preemergence, 62 g ai/ha, scale 0 to 100
[18] = 16 g ai/ha, scale 0 to 100 (0 no effect, 100 complete control)
[19] = 31 g ai/ha, 0 to 100 scale, 0 no effect, 100 complete control
[20] = Postemergence, 31 g ai/ha, scale 0 to 100, 0 no effect, 100 complete control

With `Cc1cc(-c2ccc(Cl)cc2)nn1-c1c(OS(=O)(=O)c2ccccc2)cnn(C)c1=O` [Compound 35] the “Wheat plant response rating” value ([1]; postemergence, 0-100 scale) was 0, the “Plant response rating, Wheat” value [1, 13] was 35 and the “Plant response rating, Wheat” value [1, 14] was 85. The “Plant response rating, Wheat” value [1, 15] was 0, the “Plant response rating, Wheat” value [1, 16] was 0 and the “Plant response rating, Wheat” value [1, 17] was 30. For the same compound, the “Wheat plant response rating” value ([1]; Preemergence, scale 0 to 100) was 0, the “Plant response rating, Sunflower” value [2, 18] was 0 and the “Plant response rating, Sunflower” value [2, 19] was 0. For the same compound, the “Plant response rating, Sunflower” value ([2]; 62 g ai/ha, scale 0 to 100) was 0, the “Sunflower plant response rating” value ([2]; 8 g ai/ha, scale 0 to 100) was 0 and the “Cocklebur plant response rating” value ([3]; postemergence, 0-100 scale) was 0. The “Plant response rating, Cocklebur” value [3, 13] was 0, the “Plant response rating, Cocklebur” value [3, 20] was 0 and the “Plant response rating, Cocklebur” value [3, 14] was 0. The “Plant response rating, Cocklebur” value [3, 15] was 0, the “Plant response rating, Cocklebur” value [3, 16] was 0 and the “Plant response rating, Cocklebur” value [3, 17] was 0. The “Cocklebur plant response rating” value ([3]; Preemergence, scale 0 to 100) was 0, the “Bromegrass, Downy plant response rating” value ([4]; postemergence, 0-100 scale) was 0 and the “Plant response rating, Bromegrass, Downy” value [4, 13] was 20. For the same compound, the “Plant response rating, Bromegrass, Downy” value [4, 20] was 20, the “Plant response rating, Bromegrass, Downy” value [4, 14] was 60 and the “Plant response rating, Bromegrass, Downy” value [4, 15] was 40. For the same compound, the “Plant response rating, Bromegrass, Downy” value [4, 16] was 40, the “Plant response rating, Bromegrass, Downy” value [4, 17] was 60 and the “Bromegrass, Downy plant response rating” value ([4]; Preemergence, scale 0 to 100) was 40. For the same compound, the “Foxtail, Green plant response rating” value ([5]; postemergence, 0-100 scale) was 0, the “Plant response rating, Foxtail, Green” value [5, 13] was 75 and the “Plant response rating, Foxtail, Green” value [5, 20] was 95. For the same compound, the “Plant response rating, Foxtail, Green” value [5, 14] was 95, the “Plant response rating, Foxtail, Green” value [5, 15] was 100 and the “Plant response rating, Foxtail, Green” value [5, 16] was 100. For the same compound, the “Plant response rating, Foxtail, Green” value [5, 17] was 100, the “Foxtail, Green plant response rating” value ([5]; Preemergence, scale 0 to 100) was 30 and the “Plant response rating, Galium” value [6, 18] was 0. For the same compound, the “Plant response rating, Galium” value [6, 19] was 0, the “Plant response rating, Galium” value ([6]; 62 g ai/ha, scale 0 to 100) was 20 and the “Galium plant response rating” value ([6]; 8 g ai/ha, scale 0 to 100) was 0. The “Pigweed plant response rating” value ([7]; postemergence, 0-100 scale) was 0, the “Plant response rating, Pigweed” value [7, 13] was 0 and the “Plant response rating, Pigweed” value [7, 20] was 0. The “Plant response rating, Pigweed” value [7, 14] was 0, the “Plant response rating, Pigweed” value [7, 15] was 0 and the “Plant response rating, Pigweed” value [7, 16] was 0. The “Plant response rating, Pigweed” value [7, 17] was 0, the “Pigweed plant response rating” value ([7]; Preemergence, scale 0 to 100) was 0 and the “Cupgrass, Woolly plant response rating” value ([8]; postemergence, 0-100 scale) was 80. For the same compound, the “Plant response rating, Cupgrass, Woolly” value [8, 13] was 95, the “Plant response rating, Cupgrass, Woolly” value [8, 20] was 100 and the “Plant response rating, Cupgrass, Woolly” value [8, 14] was 100. For the same compound, the “Plant response rating, Cupgrass, Woolly” value [8, 15] was 35, the “Plant response rating, Cupgrass, Woolly” value [8, 16] was 100 and the “Plant response rating, Cupgrass, Woolly” value [8, 17] was 100. The “Cupgrass, Woolly plant response rating” value ([8]; Preemergence, scale 0 to 100) was 35, the “Plant response rating, Russian Thistle” value [9, 18] was 0 and the “Plant response rating, Russian Thistle” value [9, 19] was 0. For the same compound, the “Plant response rating, Russian Thistle” value ([9]; 62 g ai/ha, scale 0 to 100) was 0, the “Russian Thistle plant response rating” value ([9]; 8 g ai/ha, scale 0 to 100) was 0 and the “Soybean plant response rating” value (soybean (Glycine max); postemergence, 0-100 scale) was 0. The “Plant response rating, Soybean” value (soybean (Glycine max); [13]) was 0, the “Plant response rating, Soybean” value (soybean (Glycine max); [14]) was 0 and the “Plant response rating, Soybean” value (soybean (Glycine max); [15]) was 0. For the same compound, the “Plant response rating, Soybean” value (soybean (Glycine max); [16]) was 0, the “Plant response rating, Soybean” value (soybean (Glycine max); [17]) was 0 and the “Soybean plant response rating” value (soybean (Glycine max); Preemergence, scale 0 to 100) was 0. For the same compound, the “Crabgrass, Large plant response rating” value ([10]; postemergence, 0-100 scale) was 60, the “Plant response rating, Crabgrass, Large” value [10, 13] was 70 and the “Plant response rating, Crabgrass, Large” value [10, 20] was 80. For the same compound, the “Plant response rating, Crabgrass, Large” value [10, 14] was 100, the “Plant response rating, Crabgrass, Large” value [10, 15] was 100 and the “Plant response rating, Crabgrass, Large” value [10, 16] was 100. The “Plant response rating, Crabgrass, Large” value [10, 17] was 100, the “Crabgrass, Large plant response rating” value ([10]; Preemergence, scale 0 to 100) was 90 and the “Velvetleaf plant response rating” value ([11]; postemergence, 0-100 scale) was 0. The “Plant response rating, Velvetleaf” value [11, 13] was 0, the “Plant response rating, Velvetleaf” value [11, 14] was 0 and the “Plant response rating, Velvetleaf” value [11, 15] was 0. For the same compound, the “Plant response rating, Velvetleaf” value [11, 16] was 0, the “Plant response rating, Velvetleaf” value [11, 17] was 0 and the “Velvetleaf plant response rating” value ([11]; Preemergence, scale 0 to 100) was 0. The “Goosegrass plant response rating” value ([12]; postemergence, 0-100 scale) was 20, the “Plant response rating, Goosegrass” value [12, 13] was 40 and the “Plant response rating, Goosegrass” value [12, 20] was 70. For the same compound, the “Plant response rating, Goosegrass” value [12, 14] was 75, the “Plant response rating, Goosegrass” value [12, 15] was 100 and the “Plant response rating, Goosegrass” value [12, 16] was 100. The “Plant response rating, Goosegrass” value [12, 17] was 100, the “Goosegrass plant response rating” value ([12]; Preemergence, scale 0 to 100) was 80 and the “Plant response rating, Rice” value (rice (Oryza sativa); Flood (flooded paddy test), 62 g ai/ha, scale 0 to 100, 0 no effect, 100 complete control) was 0. The “Plant response rating, Rice” value (rice (Oryza sativa); Flood (flooded paddy test), 125 g ai/ha, scale 0 to 100, 0 no effect, 100 complete control) was 0 and the “Plant response rating, Rice” value (rice (Oryza sativa); Flood, 31 g ai/ha, scale 0 to 100) was 0.

Reference: patent US20100267561A1, “HERBICIDAL PYRIDAZINONE DERIVATIVES” (priority 2007, published 2010)
